Reference: PubChem BioAssay (NCI)
Several values for one entry are separate records, joined by “and”; a condition that tells them apart may be missing. Identical values can stand only once.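 Interpolation was linear, between the two tested concentrations surrounding the appropriate level; five concentrations were tested over 48 hours in 96-well plates. GI50: concentration for 50% inhibition of growth. TGI: total growth inhibition.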

What was measured:
Experiment in all cases: inhibition of tumour cell growth, NCI panel, 48 h; in the data active = GI50 below about 0.43 µM; inactive = the rest
CCRF-CEM leukemia = tested on: CCRF-CEM leukemia
SN12C renal = tested on: SN12C renal
IGROV1 ovarian = tested on: IGROV1 ovarian
786-0 renal = tested on: 786-0 renal
SK-MEL-28 melanoma = tested on: SK-MEL-28 melanoma
OVCAR-8 ovarian = tested on: OVCAR-8 ovarian
NCI-H522 lung = tested on: NCI-H522 lung
SW-620 colon = tested on: SW-620 colon
LOX IMVI melanoma = tested on: LOX IMVI melanoma
PC-3 prostate = tested on: PC-3 prostate

CCN(C(=O)CCl)C(C)(C)C(SSSC(c1ccc(Cl)cc1)C(C)(C)N(CC)C(=O)CCl)c1ccc(Cl)cc1 (centres undefined)
10.7 µM: TGI (LOX IMVI melanoma)
26.4 µM: TGI (SN12C renal)
31.2 µM: TGI (786-0 renal)
24.1 µM: TGI (OVCAR-8 ovarian)
4.31 µM: TGI (SK-MEL-28 melanoma)
inactive: GI50 (CCRF-CEM leukemia) 2.45 µM | GI50 (SN12C renal) 12.5 µM | GI50 (IGROV1 ovarian) 10.9 µM | GI50 (786-0 renal) 13.6 µM | GI50 (SK-MEL-28 melanoma) 2.05 µM | GI50 (OVCAR-8 ovarian) 10.9 µM | GI50 (NCI-H522 lung) 2.06 µM | GI50 (SW-620 colon) 3.85 µM | GI50 (LOX IMVI melanoma) 3.1 µM
14.6 µM: TGI (SW-620 colon)
5.93 µM: TGI (CCRF-CEM leukemia)
3.87 µM: TGI (NCI-H522 lung)
31.5 µM: TGI (IGROV1 ovarian)

ClC1=NC(Cl)C(Cl)=N/C1=N\c1ncn[nH]1 (centres undefined)
4.04 µM: TGI (SK-MEL-28 melanoma)
6.05 µM: TGI (OVCAR-8 ovarian)
11.4 µM: TGI (786-0 renal)
inactive: GI50 (SN12C renal) 1.76 µM | GI50 (IGROV1 ovarian) 2.23 µM | GI50 (786-0 renal) 3.41 µM | GI50 (SK-MEL-28 melanoma) 1.95 µM | GI50 (OVCAR-8 ovarian) 2.27 µM | GI50 (NCI-H522 lung) 1.68 µM | GI50 (SW-620 colon) 2.06 µM | GI50 (LOX IMVI melanoma) 1.89 µM
4.3 µM: TGI (SW-620 colon)
3.31 µM: TGI (SN12C renal)
3.72 µM: TGI (LOX IMVI melanoma)
4.63 µM: TGI (IGROV1 ovarian)
3.55 µM: TGI (NCI-H522 lung)

Cc1ccc(C2(O)CC(c3ccc([N+](=O)[O-])o3)=NN2C(=O)COc2ccccc2Cl)cc1 (centres undefined)
45 µM: TGI (SK-MEL-28 melanoma)
18.9 µM: TGI (LOX IMVI melanoma)
> 48.4 µM: TGI (NCI-H522 lung)
> 100 µM: TGI (CCRF-CEM leukemia) | TGI (IGROV1 ovarian) | TGI (786-0 renal) | TGI (OVCAR-8 ovarian)
> 49.1 µM: TGI (SN12C renal)
72.3 µM: TGI (SW-620 colon)

Nc1nc(N)c(N=O)c(Nc2ccc(I)cc2)n1
29.9 µM: TGI (NCI-H522 lung)
89.9 µM: TGI (CCRF-CEM leukemia)
> 100 µM: TGI (786-0 renal) | TGI (OVCAR-8 ovarian) | TGI (SW-620 colon)
25.8 µM: TGI (IGROV1 ovarian)
49.2 µM: TGI (SN12C renal)
51.6 µM: TGI (LOX IMVI melanoma)
52.3 µM: TGI (SK-MEL-28 melanoma)

CCCCCCCCCC1C(C)c2c([nH]c3ccccc23)C2C(=O)N(c3ccccc3)C(=O)C21 (centres undefined)
> 100 µM: TGI (OVCAR-8 ovarian) | TGI (SW-620 colon)
35.3 µM: TGI (IGROV1 ovarian)
8.05 µM: TGI (CCRF-CEM leukemia)
4.7 µM: TGI (SK-MEL-28 melanoma)
25.1 µM: TGI (786-0 renal)

COc1cc2c(c(OC)c1OC)-c1ccc(SC)c(=O)cc1[C@@H](NCc1cccc(C#N)c1)CC2
20.9 µM: TGI (786-0 renal)
66.1 µM: TGI (SN12C renal)
> 75 µM: TGI (IGROV1 ovarian) | TGI (SW-620 colon)
0.0377 µM and < 0.0075 µM: TGI (NCI-H522 lung)
active: GI50 (CCRF-CEM leukemia) < 0.0075 µM | GI50 (SN12C renal) < 0.0075 µM | GI50 (IGROV1 ovarian) < 0.0075 µM | GI50 (786-0 renal) < 0.0075 µM | GI50 (OVCAR-8 ovarian) < 0.0075 µM | GI50 (NCI-H522 lung) < 0.0075 µM | GI50 (SW-620 colon) < 0.0075 µM | GI50 (LOX IMVI melanoma) < 0.0075 µM
16.6 µM: TGI (LOX IMVI melanoma)
6.16 µM: TGI (CCRF-CEM leukemia)

O=C(NC(=S)NNC(=S)NNc1ccccc1)c1ccccc1
3.42 µM: TGI (NCI-H522 lung)
inactive: GI50 (CCRF-CEM leukemia) 5.33 µM | GI50 (SN12C renal) 4.87 µM | GI50 (IGROV1 ovarian) 4.8 µM | GI50 (786-0 renal) 24.8 µM | GI50 (SK-MEL-28 melanoma) 10.6 µM | GI50 (OVCAR-8 ovarian) 4.68 µM | GI50 (NCI-H522 lung) 0.489 µM | GI50 (SW-620 colon) 4.09 µM | GI50 (LOX IMVI melanoma) 7.22 µM
> 100 µM: TGI (CCRF-CEM leukemia) | TGI (SN12C renal) | TGI (IGROV1 ovarian) | TGI (786-0 renal) | TGI (SK-MEL-28 melanoma) | TGI (OVCAR-8 ovarian) | TGI (SW-620 colon) | TGI (LOX IMVI melanoma)

CCOC(=O)N1N=NC2C3OC(C[C@@]3(C#N)OC(C)=O)[C@H]21 (some centres undefined)
> 100 µM: TGI (CCRF-CEM leukemia) | TGI (SN12C renal) | TGI (IGROV1 ovarian) | TGI (786-0 renal) | TGI (SK-MEL-28 melanoma) | TGI (OVCAR-8 ovarian) | TGI (NCI-H522 lung) | TGI (SW-620 colon) | TGI (LOX IMVI melanoma)

CCC1(C(=O)OC)CCc2c(OC)ccc(OC)c2C1=O (centres undefined)
> 100 µM: TGI (CCRF-CEM leukemia) | TGI (SN12C renal) | TGI (IGROV1 ovarian) | TGI (786-0 renal) | TGI (SK-MEL-28 melanoma) | TGI (OVCAR-8 ovarian) | TGI (NCI-H522 lung) | TGI (SW-620 colon) | TGI (LOX IMVI melanoma)

CC(=O)OCC1OC(n2c(=O)n(-c3ccccc3)c(=O)c3cc(Br)cc(Br)c32)C(OC(C)=O)C(OC(C)=O)C1OC(C)=O (centres undefined)
> 100 µM: TGI (CCRF-CEM leukemia) | TGI (SN12C renal) | TGI (IGROV1 ovarian) | TGI (786-0 renal) | TGI (SK-MEL-28 melanoma) | TGI (OVCAR-8 ovarian) | TGI (NCI-H522 lung) | TGI (SW-620 colon) | TGI (LOX IMVI melanoma)

CC1=CC2=C(C(N)=O)C(=O)OC2(C)C(c2ccccc2)C1 (centres undefined)
> 100 µM: TGI (SN12C renal) | TGI (IGROV1 ovarian) | TGI (PC-3 prostate) | TGI (786-0 renal) | TGI (SK-MEL-28 melanoma) | TGI (OVCAR-8 ovarian) | TGI (NCI-H522 lung) | TGI (SW-620 colon) | TGI (LOX IMVI melanoma)

Cc1c(C(=O)/C=C/c2ccccc2Cl)[n+](=O)c2ccccc2n1[O-]
31.6 µM: TGI (IGROV1 ovarian) | TGI (SK-MEL-28 melanoma)
28.4 µM: TGI (SN12C renal)
24 µM: TGI (SW-620 colon)
23.3 µM: TGI (NCI-H522 lung)
26.1 µM: TGI (OVCAR-8 ovarian)
25.3 µM: TGI (786-0 renal)

COc1cc(C(=O)C/C(CCC(=O)Nc2ccc(Cl)cc2Cl)=N/NC(=O)C(N)=O)ccc1O
> 100 µM: TGI (CCRF-CEM leukemia) | TGI (SN12C renal) | TGI (IGROV1 ovarian) | TGI (786-0 renal) | TGI (SK-MEL-28 melanoma) | TGI (OVCAR-8 ovarian) | TGI (NCI-H522 lung) | TGI (SW-620 colon)

CC(=O)Nc1ccccc1-c1cnc2ccccc2n1
> 100 µM: TGI (CCRF-CEM leukemia) | TGI (SN12C renal) | TGI (IGROV1 ovarian) | TGI (786-0 renal) | TGI (SK-MEL-28 melanoma) | TGI (OVCAR-8 ovarian) | TGI (NCI-H522 lung) | TGI (SW-620 colon) | TGI (LOX IMVI melanoma)

CC(C)(C)OC(=O)NC1CCC[C@H]1O (some centres undefined)
> 100 µM: TGI (CCRF-CEM leukemia) | TGI (SN12C renal) | TGI (786-0 renal) | TGI (SK-MEL-28 melanoma) | TGI (OVCAR-8 ovarian) | TGI (NCI-H522 lung) | TGI (SW-620 colon) | TGI (LOX IMVI melanoma)

Nc1ccc2c(c1)CC1c3ccccc3C(C2)c2ccccc21
> 100 µM: TGI (CCRF-CEM leukemia) | TGI (SN12C renal) | TGI (IGROV1 ovarian) | TGI (786-0 renal) | TGI (OVCAR-8 ovarian) | TGI (NCI-H522 lung) | TGI (SW-620 colon) | TGI (LOX IMVI melanoma)

COc1ccc2c(c1)sc1nc(-c3ccccc3)c(-c3ccc(O)c(OC)c3)n12
inactive: GI50 (SN12C renal) 80.4 µM | GI50 (IGROV1 ovarian) > 100 µM | GI50 (PC-3 prostate) 26.3 µM | GI50 (786-0 renal) 30.9 µM | GI50 (SK-MEL-28 melanoma) 8.99 µM | GI50 (OVCAR-8 ovarian) 41.2 µM | GI50 (NCI-H522 lung) 15 µM | GI50 (SW-620 colon) 5.15 µM | GI50 (LOX IMVI melanoma) 7.67 µM
> 100 µM: TGI (SN12C renal) | TGI (IGROV1 ovarian) | TGI (PC-3 prostate) | TGI (786-0 renal) | TGI (SK-MEL-28 melanoma) | TGI (OVCAR-8 ovarian) | TGI (NCI-H522 lung) | TGI (SW-620 colon) | TGI (LOX IMVI melanoma)

O=C(O)CCCCCO
> 100 µM: TGI (CCRF-CEM leukemia) | TGI (SN12C renal) | TGI (IGROV1 ovarian) | TGI (786-0 renal) | TGI (SK-MEL-28 melanoma) | TGI (OVCAR-8 ovarian) | TGI (NCI-H522 lung) | TGI (SW-620 colon) | TGI (LOX IMVI melanoma)

CCOC(=O)C(Cc1ccccc1)NC(=O)OC(C)(C)C (centres undefined)
> 100 µM: TGI (CCRF-CEM leukemia) | TGI (SN12C renal) | TGI (IGROV1 ovarian) | TGI (786-0 renal) | TGI (SK-MEL-28 melanoma) | TGI (OVCAR-8 ovarian) | TGI (SW-620 colon) | TGI (LOX IMVI melanoma)

CCc1ccc(Nc2cc(=O)[nH]c(=S)n2C)cc1
> 100 µM: TGI (CCRF-CEM leukemia) | TGI (SN12C renal) | TGI (IGROV1 ovarian) | TGI (786-0 renal) | TGI (OVCAR-8 ovarian) | TGI (NCI-H522 lung) | TGI (SW-620 colon) | TGI (LOX IMVI melanoma)

O=C(/C=C/c1ccccc1O)c1cccnc1
> 100 µM: TGI (CCRF-CEM leukemia) | TGI (SN12C renal) | TGI (IGROV1 ovarian) | TGI (786-0 renal) | TGI (SK-MEL-28 melanoma) | TGI (OVCAR-8 ovarian) | TGI (NCI-H522 lung) | TGI (SW-620 colon) | TGI (LOX IMVI melanoma)
